Test results as given in patent US7763611B2, “Aroylsemicarbazide derivatives against thromboembolic diseases” (Merck Patent GmbH, priority 2003, dated 2010).

Key:
TF/FVIIa = TF/FVIIa (Homo sapiens, UniProt P08709); assay: TF/FVIIa inhibition (TF/FVIIa-IC50); format: biochemical
From the text: The inhibition of factor VIIa by the compounds according to the invention and the measurement of the anticoagulant and antithrombotic activity can be determined by conventional in-vitro or in-vivo methods. A conventional method for the measurement of the inhibition of factor VIIa is described, for example, by H. F. Ronning et al. in Thrombosis Research 1996, 84, 73-81.

FXa = FXa (Homo sapiens, UniProt P00742); assay: Factor Xa inhibition (FXa-IC50); format: biochemical
Sequence of FXa (P00742 235-488 limits assumed): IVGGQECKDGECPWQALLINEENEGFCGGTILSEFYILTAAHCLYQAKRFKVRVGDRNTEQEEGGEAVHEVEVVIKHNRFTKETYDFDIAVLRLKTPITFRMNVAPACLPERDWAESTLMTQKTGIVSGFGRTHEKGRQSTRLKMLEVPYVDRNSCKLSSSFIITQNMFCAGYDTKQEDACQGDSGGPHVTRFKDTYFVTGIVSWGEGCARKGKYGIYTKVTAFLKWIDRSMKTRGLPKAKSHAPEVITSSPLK
Sequence of FXa (P00742 41-179 limits assumed): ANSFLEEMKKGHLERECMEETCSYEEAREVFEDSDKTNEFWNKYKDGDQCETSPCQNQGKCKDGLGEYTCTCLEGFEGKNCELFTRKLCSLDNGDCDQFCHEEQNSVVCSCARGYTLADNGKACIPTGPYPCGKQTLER
From the text: The inhibition of factor Xa by the compounds according to the invention and the measurement of the anticoagulant and antithrombotic activity can be determined by conventional in-vitro or in-vivo methods. A suitable method is described, for example, by J. Hauptmann et al. in Thrombosis and Haemostasis 1990, 63, 220-223.
The inhibition of factor Xa can be measured, for example by the method of T. Hara et al. in Thromb. Haemostas. 1994, 71, 314-319.

Sequence of TF/FVIIa (P08709 213-466 limits assumed): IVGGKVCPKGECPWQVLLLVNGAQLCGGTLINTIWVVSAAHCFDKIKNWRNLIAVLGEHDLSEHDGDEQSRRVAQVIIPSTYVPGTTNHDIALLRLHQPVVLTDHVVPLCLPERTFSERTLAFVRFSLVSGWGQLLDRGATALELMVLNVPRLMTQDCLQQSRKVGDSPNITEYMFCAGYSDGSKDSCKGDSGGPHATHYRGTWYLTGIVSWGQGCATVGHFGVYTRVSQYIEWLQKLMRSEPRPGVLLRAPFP
Sequence of TF/FVIIa (P08709 61-212 limits assumed): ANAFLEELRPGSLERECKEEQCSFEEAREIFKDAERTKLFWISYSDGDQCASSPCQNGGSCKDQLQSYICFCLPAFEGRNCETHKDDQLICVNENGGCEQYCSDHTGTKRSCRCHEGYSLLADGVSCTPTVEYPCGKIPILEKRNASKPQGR
Sequence of TF/FVIIa (P13726 33-295 partner): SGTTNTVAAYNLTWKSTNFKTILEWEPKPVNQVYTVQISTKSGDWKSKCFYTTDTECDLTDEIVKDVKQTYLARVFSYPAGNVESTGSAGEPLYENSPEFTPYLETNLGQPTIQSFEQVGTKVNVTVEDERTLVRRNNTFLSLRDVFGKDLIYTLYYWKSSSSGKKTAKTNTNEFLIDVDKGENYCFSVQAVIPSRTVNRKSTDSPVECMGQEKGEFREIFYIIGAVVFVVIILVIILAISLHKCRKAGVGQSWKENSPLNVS

CCCN(NC(=O)c1ccc(Cl)s1)C(=O)Nc1ccc(N2CCOCC2=O)cc1 [Compound A1, 1-(5-chlorothien-2-ylcarbonyl)-4-[4-(3-oxomorpholin-4-yl)phenyl]-2-propylsemicarbazide]
IC50 (TF/FVIIa): 830 nM
IC50 (FXa): 390 nM
melting point: 101 to 102 °C

C#CCN(NC(=O)c1ccc(Cl)s1)C(=O)Nc1ccc(N2CCOCC2=O)c(C)c1 [Compound A2, 1-(5-chlorothien-2-ylcarbonyl)4-[3-methyl-4-(3-oxomorpholin4-yl)-phenyl]-2-(prop-2-ynyl)semicarbazide]
IC50 (TF/FVIIa): 1000 nM
IC50 (FXa): 570 nM

Cc1cc(NC(=O)N(Cc2ccccc2)NC(=O)c2sccc2Cl)ccc1N1CCOCC1=O [Compound A3, 1-(3-chlorothien-2-ylcarbonyl)4-[3-methyl4-(3-oxomorpholin4-yl)-phenyl]-2-benzylsemicarbazide]
IC50 (TF/FVIIa): 180 nM
IC50 (FXa): 87 nM
